Assay results as given in PubChem BioAssay AID1745844 (Carcinogenic Potency Database (CPDB), 2022).
“And” between values parts separate entries of the source, which are not always exact repeats. Identical values can stand only once. The source made the active and inactive calls. No rule for the calls is given here.

System: rodent lifetime carcinogenesis bioassay, tumor incidence TD50
Assay: chronic cancer bioassays in animals – CPDB, compiled studies (AID 1745844)
[1] = rat, strain Sprague-Dawley, females, in feed, site: any site (literature study), lesion: several types, types named in the paper, dosed 46 weeks, study length 66 weeks

c1ccc(C2CO2)cc1 (stereo not given)
166 mg/kg/day: TD50 (rat, strain Sprague-Dawley, females, by gavage, site: any site (literature study), lesion: malignant tumor, dosed 52 weeks, study length 156 weeks)
164 mg/kg/day: TD50 (rat, strain Sprague-Dawley, females, by gavage, site: any site (literature study), lesion: several types, types named in the paper, dosed 52 weeks, study length 156 weeks)
5960 mg/kg/day: TD50 (mouse, strain B6C3F1, females, by gavage, site: liver, lesion: several types, types named in the paper, dosed 104 weeks, study length 107 weeks)
10300 mg/kg/day: TD50 (rat, strain Fischer 344, males, by gavage, site: liver, lesion: neoplastic nodule, dosed 104 weeks, study length 107 weeks)
191 mg/kg/day: TD50 (rat, strain Sprague-Dawley, males, by gavage, site: any site (literature study), lesion: several types, types named in the paper, dosed 52 weeks, study length 156 weeks)
active: TD50 (mouse, strain B6C3F1, females, by gavage, site: forestomach, lesion: several types, types named in the paper, dosed 104 weeks, study length 107 weeks) 172 mg/kg/day | TD50 (mouse, strain B6C3F1, females, by gavage, site: forestomach, lesion: squamous-cell carcinoma, dosed 104 weeks, study length 107 weeks) 505 mg/kg/day | TD50 (mouse, strain B6C3F1, females, by gavage, site: forestomach, lesion: squamous-cell papilloma, dosed 104 weeks, study length 107 weeks) 460 mg/kg/day | TD50 (mouse, strain B6C3F1, males, by gavage, site: forestomach, lesion: several types, types named in the paper, dosed 104 weeks, study length 107 weeks) 90 mg/kg/day | TD50 (mouse, strain B6C3F1, males, by gavage, site: forestomach, lesion: squamous-cell carcinoma, dosed 104 weeks, study length 107 weeks) 475 mg/kg/day | TD50 (mouse, strain B6C3F1, males, by gavage, site: forestomach, lesion: squamous-cell papilloma, dosed 104 weeks, study length 107 weeks) 215 mg/kg/day | TD50 (rat, strain Fischer 344, females, by gavage, site: forestomach, lesion: several types, types named in the paper, dosed 104 weeks, study length 107 weeks) 42.9 mg/kg/day | TD50 (rat, strain Fischer 344, females, by gavage, site: forestomach, lesion: squamous-cell carcinoma, dosed 104 weeks, study length 107 weeks) 114 mg/kg/day | TD50 (rat, strain Fischer 344, females, by gavage, site: forestomach, lesion: squamous-cell papilloma, dosed 104 weeks, study length 107 weeks) 217 mg/kg/day | TD50 (rat, strain Fischer 344, males, by gavage, site: forestomach, lesion: several types, types named in the paper, dosed 104 weeks, study length 107 weeks) 30.7 mg/kg/day | TD50 (rat, strain Fischer 344, males, by gavage, site: forestomach, lesion: squamous-cell carcinoma, dosed 104 weeks, study length 107 weeks) 81.6 mg/kg/day | TD50 (rat, strain Fischer 344, males, by gavage, site: forestomach, lesion: squamous-cell papilloma, dosed 104 weeks, study length 107 weeks) 146 mg/kg/day | TD50 (rat, strain Sprague-Dawley, females, by gavage, site: forestomach, lesion: benign tumor, dosed 52 weeks, study length 156 weeks) 503 mg/kg/day | TD50 (rat, strain Sprague-Dawley, females, by gavage, site: forestomach, lesion: several types, types named in the paper, dosed 52 weeks, study length 156 weeks) 96.5 mg/kg/day | TD50 (rat, strain Sprague-Dawley, females, by gavage, site: forestomach, lesion: squamous-cell carcinoma, in situ, dosed 52 weeks, study length 156 weeks) 129 mg/kg/day | TD50 (rat, strain Sprague-Dawley, females, by gavage, site: forestomach, lesion: squamous-cell carcinoma, invasive, dosed 52 weeks, study length 156 weeks) 301 mg/kg/day | TD50 (rat, strain Sprague-Dawley, females, by gavage, site: forestomach, lesion: squamous-cell carcinoma, dosed 52 weeks, study length 156 weeks) 102 mg/kg/day | TD50 (rat, strain Sprague-Dawley, males, by gavage, site: forestomach, lesion: benign tumor, dosed 52 weeks, study length 156 weeks) 354 mg/kg/day | TD50 (rat, strain Sprague-Dawley, males, by gavage, site: forestomach, lesion: several types, types named in the paper, dosed 52 weeks, study length 156 weeks) 99.6 mg/kg/day | TD50 (rat, strain Sprague-Dawley, males, by gavage, site: forestomach, lesion: squamous-cell carcinoma, in situ, dosed 52 weeks, study length 156 weeks) 140 mg/kg/day | TD50 (rat, strain Sprague-Dawley, males, by gavage, site: forestomach, lesion: squamous-cell carcinoma, invasive, dosed 52 weeks, study length 156 weeks) 267 mg/kg/day | TD50 (rat, strain Sprague-Dawley, males, by gavage, site: forestomach, lesion: squamous-cell carcinoma, dosed 52 weeks, study length 156 weeks) 63 mg/kg/day
223 mg/kg/day: TD50 (mouse, strain B6C3F1, males, by gavage, site: liver, lesion: several types, types named in the paper, dosed 104 weeks, study length 107 weeks)
189 mg/kg/day: TD50 (rat, strain Sprague-Dawley, males, by gavage, site: any site (literature study), lesion: malignant tumor, dosed 52 weeks, study length 156 weeks)

O=C1OC(CN2CCOCC2)CN1/N=C/c1ccc([N+](=O)[O-])o1 (stereo not given)
active: TD50 (rat, strain Sprague-Dawley, females, in feed, site: all sites, lesion: lymphoblastic lymphoma, dosed 46 weeks, study length 66 weeks) 39 mg/kg/day | TD50 (rat, strain Sprague-Dawley, females, in feed, site: kidney/pelvis, lesion: transitional-cell carcinoma, dosed 46 weeks, study length 66 weeks) 149 mg/kg/day | TD50 (rat, strain Sprague-Dawley, females, in feed, site: mammary gland, lesion: adenocarcinoma, dosed 46 weeks, study length 66 weeks) 6.33 mg/kg/day
2.81 mg/kg/day: TD50 [1] | TD50 (rat, strain Sprague-Dawley, females, in feed, site: mammary gland, lesion: several types, types named in the paper, dosed 46 weeks, study length 66 weeks)

CC(C)[N+](=O)[O-]
inactive: carcinogen call (rat, strain Sprague-Dawley, females, inhaled, site: any site (literature study), lesion: benign tumor, dosed 52 weeks, study length 52 weeks) negative | carcinogen call (rat, strain Sprague-Dawley, females, inhaled, site: any site (literature study), lesion: benign tumor, dosed 52 weeks, study length 95 weeks) negative | carcinogen call (rat, strain Sprague-Dawley, females, inhaled, site: any site (literature study), lesion: benign tumor, dosed 95 weeks, study length 95 weeks) negative | carcinogen call (rat, strain Sprague-Dawley, females, inhaled, site: any site (literature study), lesion: malignant tumor, dosed 52 weeks, study length 52 weeks) negative | carcinogen call (rat, strain Sprague-Dawley, females, inhaled, site: any site (literature study), lesion: malignant tumor, dosed 52 weeks, study length 95 weeks) negative | carcinogen call (rat, strain Sprague-Dawley, females, inhaled, site: any site (literature study), lesion: malignant tumor, dosed 95 weeks, study length 95 weeks) negative | carcinogen call (rat, strain Sprague-Dawley, females, inhaled, site: liver, lesion: one or several types, types not named, dosed 52 weeks, study length 52 weeks) negative | carcinogen call (rat, strain Sprague-Dawley, females, inhaled, site: liver, lesion: one or several types, types not named, dosed 52 weeks, study length 95 weeks) negative | TD50 (rat, strain Sprague-Dawley, females, inhaled, site: liver, lesion: one or several types, types not named, dosed 95 weeks, study length 95 weeks) 293 mg/kg/day | TD50 (rat, strain Sprague-Dawley, males, inhaled, site: any site (literature study), lesion: benign tumor, dosed 52 weeks, study length 52 weeks) 9.06 mg/kg/day | TD50 (rat, strain Sprague-Dawley, males, inhaled, site: any site (literature study), lesion: benign tumor, dosed 52 weeks, study length 95 weeks) 7.78 mg/kg/day | carcinogen call (rat, strain Sprague-Dawley, males, inhaled, site: any site (literature study), lesion: benign tumor, dosed 95 weeks, study length 95 weeks) negative | carcinogen call (rat, strain Sprague-Dawley, males, inhaled, site: any site (literature study), lesion: malignant tumor, dosed 52 weeks, study length 52 weeks) negative | TD50 (rat, strain Sprague-Dawley, males, inhaled, site: any site (literature study), lesion: malignant tumor, dosed 52 weeks, study length 95 weeks) 23.6 mg/kg/day | carcinogen call (rat, strain Sprague-Dawley, males, inhaled, site: any site (literature study), lesion: malignant tumor, dosed 95 weeks, study length 95 weeks) negative | carcinogen call (rat, strain Sprague-Dawley, males, inhaled, site: liver, lesion: angioma, dosed 52 weeks, study length 95 weeks) negative | carcinogen call (rat, strain Sprague-Dawley, males, inhaled, site: liver, lesion: angioma, dosed 95 weeks, study length 95 weeks) negative | carcinogen call (rat, strain Sprague-Dawley, males, inhaled, site: liver, lesion: one or several types, types not named, dosed 52 weeks, study length 52 weeks) negative

CCOC(=O)c1ccc(N)cc1
1270 mg/kg/day: TD50 (rat, strain ACI, females, in feed, site: cecum, lesion: adenoma, dosed 68 weeks, study length 68 weeks)
inactive: TD50 (rat, strain ACI, females, in feed, site: urinary bladder, lesion: one or several types, types not named, dosed 68 weeks, study length 68 weeks) 2560 mg/kg/day and 1640 mg/kg/day | TD50 (rat, strain ACI, males, in feed, site: cecum, lesion: adenoma, dosed 68 weeks, study length 68 weeks) 4250 mg/kg/day
331 mg/kg/day: TD50 (rat, strain ACI, both sexes, in feed, site: colorectum, lesion: papilloma, dosed 94 weeks, study length 94 weeks)
active: TD50 (rat, strain ACI, both sexes, in feed, site: colorectum, lesion: squamous-cell carcinoma, dosed 94 weeks, study length 94 weeks) 1760 mg/kg/day | TD50 (rat, strain ACI, both sexes, in feed, site: intestine, lesion: several types, types named in the paper, dosed 94 weeks, study length 94 weeks) 191 mg/kg/day | TD50 (rat, strain ACI, females, in feed, site: colorectum, lesion: adenocarcinoma, dosed 68 weeks, study length 68 weeks) 373 mg/kg/day | TD50 (rat, strain ACI, females, in feed, site: colorectum, lesion: adenoma, dosed 68 weeks, study length 68 weeks) 977 mg/kg/day | TD50 (rat, strain ACI, females, in feed, site: colorectum, lesion: papilloma, dosed 68 weeks, study length 68 weeks) 219 mg/kg/day | TD50 (rat, strain ACI, females, in feed, site: colorectum, lesion: squamous-cell carcinoma, dosed 68 weeks, study length 68 weeks) 1760 mg/kg/day | TD50 (rat, strain ACI, males, in feed, site: colorectum, lesion: adenocarcinoma, dosed 68 weeks, study length 68 weeks) 182 mg/kg/day | TD50 (rat, strain ACI, males, in feed, site: colorectum, lesion: adenoma, dosed 68 weeks, study length 68 weeks) 1700 mg/kg/day | TD50 (rat, strain ACI, males, in feed, site: colorectum, lesion: squamous-cell carcinoma, dosed 68 weeks, study length 68 weeks) 2050 mg/kg/day

C=C1CC[C@H](O)C/C1=C/C=C1\CCC[C@]2(C)[C@@H]([C@H](C)/C=C/[C@H](C)C(C)C)CC[C@@H]12
39.6 mg/kg/day: TD50 (mouse, strain C3H (MTV+), females, in feed, site: mammary gland, lesion: adenocarcinoma, dosed 104 weeks, study length 104 weeks)

CC[C@H]1OC(=O)[C@H](C)[C@@H](O[C@H]2C[C@@](C)(OC)[C@@H](O)[C@H](C)O2)[C@H](C)[C@@H](O[C@@H]2O[C@H](C)C[C@H](N(C)C)[C@H]2O)[C@](C)(O)C[C@@H](C)C(=O)[C@H](C)[C@@H](O)[C@]1(C)O
inactive: carcinogen call (mouse, strain B6C3F1, females, in feed, site: any site (literature study), lesion: several types, types named in the paper, dosed 103 weeks, study length 104 weeks) negative | carcinogen call (mouse, strain B6C3F1, males, in feed, site: any site (literature study), lesion: several types, types named in the paper, dosed 103 weeks, study length 104 weeks) negative | carcinogen call (rat, strain Fischer 344, females, in feed, site: any site (literature study), lesion: several types, types named in the paper, dosed 103 weeks, study length 104 weeks) negative | TD50 (rat, strain Fischer 344, males, in feed, site: any site (literature study), lesion: several types, types named in the paper, dosed 103 weeks, study length 104 weeks) 2020 mg/kg/day
3950 mg/kg/day: TD50 (rat, strain Fischer 344, males, in feed, site: liver, lesion: hepatocellular adenoma + hepatocellular carcinoma + neoplastic nodule, dosed 103 weeks, study length 104 weeks)
5850 mg/kg/day: TD50 (rat, strain Fischer 344, females, in feed, site: liver, lesion: hepatocellular adenoma + hepatocellular carcinoma + neoplastic nodule, dosed 103 weeks, study length 104 weeks)

O=[N+]([O-])c1ccc(-c2nc(NCCO)c3ccccc3n2)s1
3.84 mg/kg/day: TD50 (rat, strain Sprague-Dawley, females, in feed, site: intestine, lesion: leiomyosarcoma, dosed 46 weeks, study length 66 weeks)
132 mg/kg/day: TD50 (rat, strain Sprague-Dawley, females, in feed, site: liver, lesion: bile duct adenoma, dosed 46 weeks, study length 66 weeks)
active: TD50 [1] 1.87 mg/kg/day
